Measurements as given in article PMC6421704 (Journal of Experimental & Clinical Cancer Research : CR, 2019).

Legend:
[1] = tested on: HepG2 cell line tumor xenografts; assay: HepG2 xenograft tumor model in nude mice; format: in vivo; conditions: Crizotinib (16 mg/kg) or GNF-5837 (16 mg/kg) alone or combined, intraperitoneally, 3 weeks
Description: First, 2 × 10^6 HepG2 cells, 4 × 10^6 MHCC 97H cells, 4 × 10^6MHCC 97 L cells, 2 × 10^6 A549 cells, or 5 × 10^6 SMMC-7721 cells in a volume of 200 μl PBS were inoculated subcutaneously in the right flank of each mouse. Tumor growth was measured using vernier calipers, and tumor volume (mm^3) was calculated as (L × W × H)/2. When the mean tumor volume reached 200 mm^3, the mice were randomized into four groups and treatment was initiated. […] Tumor volume were recorded every 3 days until the study was terminated. The mice were sacrificed after 21 days of treatment.
The inhibition rate was calculated.
The tumor weights were measured, and the inhibition rate was calculated. Data are shown as the mean ± S.D. and are representative of three independent experiments. **p < 0.01, ***p < 0.001

[2] = tested on: HepG2 cells; assay: HepG2 cell growth with Crizotinib and GNF-5837; format: cell-based; conditions: Homo sapiens, read-out: growth inhibition rate
Description: The inhibition rate was calculated (right panel).

[3] = tested on: TrkB signaling; assay: BDNF-induced TrkB signaling in HepG2 cells (Western blot); format: cell-based, human; conditions: HepG2, Crizotinib (0.5 μM) pretreated 2 h, BDNF 50 ng/ml
Description: Data are shown as the mean ± S.D. and are representative of three independent experiments. ** p < 0.01, *** p < 0.001.
(b) HepG2 cells were treated with BDNF (10 ng/ml) alone or BDNF (10 ng/ml) and HGF (10 ng/ml) for the indicated time and the activation of TrkB signaling pathway was examined. […] The activation of the TrkB and c-Met signaling pathways were examined. […] The activation of the TrkB and c-Met signaling pathways were examined. […] Data are shown as the mean ± S.D. and are representative of three independent experiments. **p < 0.01, ***p < 0.001
(§1) For western blots, cells were lysed with M-PER? Mammalian Protein Extraction Reagent (Pierce, Rockford, IL, USA). Then, western blot analysis was performed according to standard procedures. Chemiluminescent detection was conducted using supersignal substrate (Pierce) according to the manufacturer’s specifications.

[4] = tested on: c-Met signaling pathway; assay: HGF-induced c-Met signaling pathway activation in HepG2 cells (Western blot); conditions: HepG2, GNF-5837 (4 μM) pretreated 2 h, HGF 20 ng/ml
Description: (a) HepG2 cells were treated with HGF (10 ng/ml) alone or HGF (10 ng/ml) and BDNF (10 ng/ml) for the indicated time and the activation of c-Met signaling pathway was examined.
as §1

Row | Structure (SMILES) | inhibition rate (tumor weight) [1] | inhibition at 0.1 µM ([2]; HepG2, 100 nM Crizotinib, 48 h) | BDNF-induced TrkB signaling pathway activation [3] | HGF-induced c-Met signaling pathway activation [4] | inhibition at 2 µM ([2]; HepG2, 2 μM GNF-5837, 48 h)
1 | C[C@@H](Oc1cc(-c2cnn(C3CCNCC3)c2)cnc1N)c1c(Cl)ccc(F)c1Cl [Crizotinib] | 28% | 30% | significant attenuation |  | 
2 | Cc1ccc(NC(=O)Nc2cc(C(F)(F)F)ccc2F)cc1Nc1ccc2c(c1)NC(=O)/C2=C\c1ccc[nH]1 [GNF-5837] | 21% |  |  | suppressed | 14%
